This test deals with Mus musculus. The experiment in a line: Antihypoxic activity in fasted Kunming mouse assessed as survival time of mouse under hypoxic condition at 80 mg/kg administered for 5 days (reference value: 2199 +/-217 secs). It is filed as functional.
Regarding `CCCCCN(c1nnc(S(N)(=O)=O)s1)S(=O)(=O)c1ccccc1`, the Time was found to be 2716 s.

In the case of `Cc1ccc(S(=O)(=O)N(Cc2ccccc2)c2nnc(S(N)(=O)=O)s2)cc1`, the Time is recorded as 2582 s. For the molecule `CC(=O)Nc1nnc(S(N)(=O)=O)s1` [ACETAZOLAMIDE], the Time was determined as 2726 s. Regarding `CCN(c1nnc(S(N)(=O)=O)s1)S(=O)(=O)c1ccccc1`, the Time was 2716 s. Regarding `CCCCN(c1nnc(S(N)(=O)=O)s1)S(=O)(=O)c1ccccc1`, the Time was 2977 s. As for `CCCN(c1nnc(S(N)(=O)=O)s1)S(=O)(=O)c1ccccc1`, the Time was determined as 3135 s. On to `Cc1ccc(S(=O)(=O)N(CCc2ccccc2)c2nnc(S(N)(=O)=O)s2)cc1`, for which the Time was 2441 s. In the case of `Cc1ccc(CN(c2nnc(S(N)(=O)=O)s2)S(=O)(=O)c2ccc(C)cc2)cc1`, the Time turned out to be 2512 s. As for `Cc1ccc(S(=O)(=O)N(CC(C)C)c2nnc(S(N)(=O)=O)s2)cc1`, the Time stood at 3486 s. Take `Cc1ccc(S(=O)(=O)N(c2nnc(S(N)(=O)=O)s2)C(C)C)cc1`: the Time amounted to 2426 s. As to `Cc1ccc(S(=O)(=O)N(Cc2ccc(F)cc2)c2nnc(S(N)(=O)=O)s2)cc1`, the Time is given as 2860 s.
